# Test results published in PMC2834185 (Nature chemical biology, 2010).
# Entries after “also recorded” stand apart in the source; their conditions may differ.
# Legend:
# embryonic zebrafish [1] = test: photomotor response; type: in vivo; conditions: for effect on PMR excitation phase (motor response to the first stimulus) / effect on PMR latency period / effect on motor activity in the PMR / effect on PMR refractory period (response to the second stimulus): embryonic zebrafish; for effect on PMR excitation phase (motor response to the first stimulus) / effect on PMR latency period / effect on motor activity in the PMR: light stimulus; for suppression of AzMet behavioral effects (PMR excitation): AzMet co—treated with 2—PAM and atropine; for effect on PMR refractory period (response to the second stimulus): second light pulse
# embryonic zebrafish [2] = test: embryonic touch response; type: in vivo; conditions: touch stimulus
# purified AChE = purified AChE (Homo sapiens, UniProt P22303); test: AChE activity assay in vitro; conditions: 10 μM
# MAO—B = molecular target: T1, MAO—B (Homo sapiens, UniProt P27338); conditions: in vitro; warfarin at 10 μM
# T1 sequence (P27338 1-520): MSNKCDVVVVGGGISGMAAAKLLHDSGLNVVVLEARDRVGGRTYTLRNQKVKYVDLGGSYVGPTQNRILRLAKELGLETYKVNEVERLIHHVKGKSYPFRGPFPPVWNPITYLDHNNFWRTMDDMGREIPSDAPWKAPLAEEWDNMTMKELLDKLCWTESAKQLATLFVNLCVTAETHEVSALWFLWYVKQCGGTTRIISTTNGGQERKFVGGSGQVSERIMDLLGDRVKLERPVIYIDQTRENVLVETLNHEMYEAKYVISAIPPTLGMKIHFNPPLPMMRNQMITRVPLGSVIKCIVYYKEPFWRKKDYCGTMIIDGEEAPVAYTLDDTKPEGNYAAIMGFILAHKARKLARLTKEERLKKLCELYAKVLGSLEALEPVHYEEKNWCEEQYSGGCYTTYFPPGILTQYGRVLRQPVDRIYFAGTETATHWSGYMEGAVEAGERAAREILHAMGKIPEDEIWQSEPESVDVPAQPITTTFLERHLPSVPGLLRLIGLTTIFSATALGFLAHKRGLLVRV
# purified AChE, sequence (P22303 32-614): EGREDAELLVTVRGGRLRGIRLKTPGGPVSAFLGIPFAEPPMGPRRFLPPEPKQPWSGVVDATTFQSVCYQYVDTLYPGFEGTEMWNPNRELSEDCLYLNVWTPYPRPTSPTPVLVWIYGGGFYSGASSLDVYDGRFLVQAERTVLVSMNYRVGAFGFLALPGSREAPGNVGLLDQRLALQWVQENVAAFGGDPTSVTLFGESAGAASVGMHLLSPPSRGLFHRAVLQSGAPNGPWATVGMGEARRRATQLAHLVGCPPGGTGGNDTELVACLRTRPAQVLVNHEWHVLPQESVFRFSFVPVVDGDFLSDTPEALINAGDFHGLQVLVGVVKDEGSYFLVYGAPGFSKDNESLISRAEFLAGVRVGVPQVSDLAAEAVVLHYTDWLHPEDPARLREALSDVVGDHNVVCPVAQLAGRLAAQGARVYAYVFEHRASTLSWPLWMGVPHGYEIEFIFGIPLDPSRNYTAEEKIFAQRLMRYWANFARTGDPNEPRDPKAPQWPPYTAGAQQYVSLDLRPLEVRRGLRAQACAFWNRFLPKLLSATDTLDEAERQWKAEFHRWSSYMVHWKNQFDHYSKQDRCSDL
structure (smiles),measurement,setting,value
C[C@]12CC[C@H]3[C@@H](CC[C@]4(O)C[C@@H](O)CC[C@]34C(=O)O)[C@@]1(O)CC[C@@H]2C1=CC(=O)OC1 [strophanthidinic acid],effect on PMR excitation phase (motor response to the first stimulus),embryonic zebrafish [1],prolongation of the PMR excitation period
CCCN1CCO[C@@H]2c3cc(O)ccc3OC[C@H]21 [PD128907],effect on PMR latency period,embryonic zebrafish [1],prolonged latency period
CN1[C@@H]2CC[C@H]1C[C@@H](OC(=O)C(CO)c1ccccc1)C2 (stereo partly drawn) [atropine],suppression of AzMet behavioral effects (PMR excitation),embryonic zebrafish [1],counteracted the behavioral effects of AzMet
CN1CCc2cccc3c2[C@H]1Cc1ccc(O)c(O)c1-3 [apomorphine],effect on PMR latency period,embryonic zebrafish [1],lengthened the PMR latency period
same,effect on PMR latency period,embryonic zebrafish [1]; listed as Apomorphine,increases PMR latency period duration
CN1C(=O)CN=C(c2ccccc2)c2cc(Cl)ccc21 [diazepam],effect on motor activity in the PMR,embryonic zebrafish [1],decreased activity
same,effect on motor activity in the PMR,embryonic zebrafish [1]; listed as Diazepam,reduces motor activity
C[n+]1ccccc1C=NO [pralidoxime],suppression of AzMet behavioral effects (PMR excitation),embryonic zebrafish [1],counteracted the behavioral effects of AzMet
Oc1cc2c(cc1O)[C@H]1c3ccccc3CN[C@@H]1CC2 (racemic) [dihydrexidine],effect on PMR latency period,embryonic zebrafish [1],prolonged latency period
O=C(CCCN1C(=O)c2ccccc2C1=O)N1CCCCCC1 [STR—1],phenotype in the ETR assay,embryonic zebrafish [2],slow—to—relax (STR) phenotype
O=[N+]([O-])c1ccc2nc(N3CCNCC3)ccc2c1 [6—nitroquipazine],effect on PMR excitation phase (motor response to the first stimulus),embryonic zebrafish [1],exhibited a robust but brief motor response to the first stimulus
same,effect on PMR refractory period (response to the second stimulus),embryonic zebrafish [1],also responded to the second stimulus
same,effect on PMR refractory period (response to the second stimulus),embryonic zebrafish [1]; listed as 6—Nitroquipazine,modulates the PMR refractory period
COc1ccc(C(=O)O[C@H]2CC[C@@]3(C)[C@@H]4CC[C@H]5[C@]6(O)C[C@H](O)[C@@]7(O)[C@@H](CN8C[C@@H](C)CC[C@H]8[C@@]7(C)O)[C@]6(O)C[C@@]53O[C@]24O)cc1OC [veratridine],effect on PMR excitation phase (motor response to the first stimulus),embryonic zebrafish [1],prolongation of the PMR excitation period
CC(C)(C)NCC(O)c1cc(Cl)c(N)c(Cl)c1 (stereo not drawn) [clenbuterol],effect on motor activity in the PMR,embryonic zebrafish [1],elevated activity in all PMR phases
COP(=S)(OC)SCn1nnc2ccccc2c1=O [azinphos methyl],paralysis in zebrafish,embryonic zebrafish [1]; compared to untreated controls,caused paralysis in zebrafish
same,effect on PMR excitation phase (motor response to the first stimulus),embryonic zebrafish [1],reduced levels of PMR excitation
O=C1c2ccccc2-c2nc3ncnn3c(-c3ccccc3Cl)c21 [STR—2],inhibition of purified AChE in vitro,purified AChE,did not inhibit purified AChE in vitro
same,phenotype in the ETR assay,embryonic zebrafish [2],slow—to—relax (STR) phenotype
CC(=O)CC(c1ccccc1)c1c(O)c2ccccc2oc1=O (stereo not drawn) [warfarin],inhibition of MAO activity,MAO—B,nor inhibit MAO activity
same,PMR magnitude stimulant (MAG) phenotype,"embryonic zebrafish [1]; increased PMR excitation magnitude and duration, warfarin at 10 μM",do not produce a MAG phenotype
CC(C)NCC(O)c1ccc(O)c(O)c1 (stereo not drawn) [isoproterenol],effect on motor activity in the PMR,embryonic zebrafish [1],increased motor activity throughout the PMR; also recorded: elevated activity in all PMR phases
same,effect on motor activity in the PMR,embryonic zebrafish [1]; listed as Isoproterenol,increases zebrafish motor activity
CNC(=O)Oc1ccc2c(c1)[C@]1(C)CCN(C)[C@@H]1N2C [eserine],phenotype in the ETR assay,embryonic zebrafish [2],slow—to—relax (STR) phenotype
CC(C)[C@@]1(NC(=O)[C@@H]2C[C@@H]3c4cccc5[nH]cc(c45)C[C@H]3N(C)C2)O[C@@]2(O)[C@@H]3CCCN3C(=O)[C@H](Cc3ccccc3)N2C1=O [dihydroergocristine],effect on PMR latency period,embryonic zebrafish [1],prolonged latency period
CNC[C@H](O)c1ccc(O)c(O)c1 [epinephrine],effect on motor activity in the PMR,embryonic zebrafish [1],elevated activity in all PMR phases
CCN1C[C@]2(COC)[C@H](O)C[C@H](OC)[C@@]34[C@@H]5C[C@@]6(O)[C@H](OC(=O)c7ccccc7)[C@@H]5[C@@](OC(C)=O)([C@@H]([C@H](OC)[C@H]23)[C@@H]14)[C@@H](O)[C@@H]6OC [aconitine],effect on PMR excitation phase (motor response to the first stimulus),embryonic zebrafish [1],prolongation of the PMR excitation period
C[C@]12CC[C@H](O)C[C@H]1CC[C@@H]1[C@@H]2CC[C@]2(C)[C@@H](C3=CC(=O)OC3)CC[C@]12O [digitoxigenin],toxicity in the PMR assay,embryonic zebrafish [1]; concentrations above the active range (Supplementary Fig. 1),induced toxicities at higher concentrations
same,effect on PMR excitation phase (motor response to the first stimulus),embryonic zebrafish [1],caused a vigorous and prolonged motor response to the stimulus; also recorded: prolongation of the PMR excitation period
same,effect on PMR excitation phase (motor response to the first stimulus),embryonic zebrafish [1]; listed as Digitoxigenin,prolongs duration of the PMR excitation phase
